Test results taken from article PMC3225327 (Journal of Biomedical Science, 2011).

Tests used:
[1] = system: total IgG2a, total and OVA-specific IgE; assay: IgE and IgG2a levels in serum and BALF of sensitized and challenged mice (ELISA); type: in vivo, BABL/c mice; details: 3~30 μmol/kg p.o.
Description: According to the schedule (Figure 1), ten female BABL/c mice in each group were sensitized by an intraperitoneal (i.p.) injection of 20 μg of OVA emulsified in 2.25 mg of an aluminum hydroxide gel, prepared from aluminum sulfate hexadecahydrate, in a total volume of 100 μl on days 0 and 14. On day 21, these mice were injected with (i.p.) 100 μl of a mixture of 1% OVA and Freund's complete adjuvant (1:1). Mice were challenged via the airway using 1% OVA in saline for 30 min on days 28, 29, and 30 by ultrasonic nebulization. After the last of OVA challenges, AHR was assessed on day 32 (48 h after 1% OVA provocation) in each group. Each group of mice was orally (p.o.) administered the vehicle (control) or 3~30 μmol/kg of HDME 2 h before and 6 and 24 h after OVA provocation. For comparison, sham-treated mice were challenged with saline instead of 1% OVA (non-challenged). […] AHR was assessed using two methods: (1) in anesthetized ventilated mice, AHR was assessed as previously described by measuring changes in the airway resistance (RL, cmH2O/ml/sec) and lung dynamic compliance (Cdyn, ml/cmH2O) after challenge with aerosolized methacholine (MCh, 0.78~25 mg/ml) using the FlexiVent system (SCIREQ, Montreal, Quebec, Canada). Anesthetized (urethane 600 mg/kg and chloralose 120 mg/kg, i.p.), tracheostomized (stainless-steel cannula, 18 G) mice were mechanically ventilated (at 150 breaths/min, with a tidal volume of 10 ml/kg, positive end-expiratory pressure of 3 cmH2O). (2) in unrestrained animals by barometric plethysmography using a whole-body plethysmograph (WBP) and analyzed using software of Life Science Suite P3 Analysis Modules (Gould, LDS Test and Measurement LLC, Valley View, OH, USA). Mice were placed into the main chamber of the WBP, and the baseline enhanced pause (Penh) value was determined. Then mice were first nebulized with phosphate-buffered saline (PBS), and subsequently with increasing doses (6.25~50 mg/ml) of MCh for 3 min for each nebulization, followed by readings of breathing parameters for 3 min after each nebulization to determine Penh values.
Twenty-four hours after Penh determination, these mice were anesthetized with pentobarbital (50 mg/kg, i.p.), and the lungs were lavaged via a tracheal tube with PBS (1 × 1.0 ml, 37°C). After lavage, blood was collected from the jugular vein and allowed to sit so that it would coagulate. The collected bronchoalveolar lavage fluid (BALF) and coagulated blood were respectively centrifuged at 630 g for 7 min and at 3700 g for 10 min at 4°C. After centrifugation, the BALF and serum supernatants were stored at -20°C until determination of cytokines, including interleukin (IL)-2, IL-4, IL-5, tumor necrosis factor (TNF)-α, and interferon (IFN)-γ by flow cytometric methods using mouse T helper (Th)1/Th2 cytokine CBA kits, and of total immunoglobulin (Ig)E or IgG2a using ELISA kits (Pharmingen, San Diego, CA, USA) according to the respective recommendations of the manufacturers. OVA-specific IgE was measured as described previously. Wells were coated with 100 μl of OVA (20 μg/ml) instead of the capture antibody. Levels are expressed in arbitrary units, where 1 arbitrary unit equals the optical density of the sample divided by the optical density of unchallenged mouse serum or BALF (standard). […] The number of inflammatory cells was counted using a hemocytometer (Hausser Scientific, Horsham, PA, USA). […]

[2] = system: PDE1; assay: Inhibition of PDE1 activity, two-step procedure; type: biochemical; details: homogenate of guinea pig lungs or hearts
Description: Activities of PDE1~5 in the homogenate of guinea pig lungs or hearts were measured by a two-step procedure according to the previous method, using cAMP with [^3H]-cAMP or cGMP with [^3H]-cGMP as substrates. […] The reagents and homogenate were mixed on ice, and the reaction was initiated by transferring the mixture to a water bath at 37°C. Following a 30-min incubation, the reaction was stopped by transferring the reaction vessel to a bath of boiling water for 3 min. After cooling on ice, 20 μl of a 1 mg/ml solution of Crotalus atrox snake venom was added to the reaction mixture, and the mixture was incubated at 37°C for 10 min. Unreacted [^3H]-cAMP or [^3H]-cGMP was removed by the addition of 500 μl of a 1-in-1 Tris-HCl (40 mM) buffer suspension of Dowex resin (1 × 8-200) with incubation on ice for 30 min. Each tube was then centrifuged at 3700 g for 2 min, and 150 μl of the supernatant was removed for liquid scintillation counting. […] The total protein in each fraction used was assayed according to a previous method. PDE activities are reported as nmol/mg/min.

COc1cc(O)c2c(c1)O[C@H](c1ccc(OC)c(OC)c1)CC2=O [HDME, hesperetin-7,3'-O-dimethylether]
effect on OVA-specific IgE level in the BALF [1]: dose-dependently and significantly suppressed | effect on OVA-specific IgE level in the serum [1]: dose-dependently and significantly suppressed | effect on total IgE level in the BALF [1]: dose-dependently and significantly suppressed | effect on total IgE level in the serum [1]: dose-dependently and significantly suppressed | effect on total IgG2a level in the serum [1]: dose-dependently and significantly enhanced | IC50 [2]: 22.1 ± 6.4 µM
